# Laboratory results published in PMC3527126 (Endocrine-related cancer, 2011).
# Biological target: PKCδ (Homo sapiens, UniProt Q05655)
# Assay: Omnia fluorescent
# Format: biochemical
# PKCδ, sequence (Q05655 whole entry): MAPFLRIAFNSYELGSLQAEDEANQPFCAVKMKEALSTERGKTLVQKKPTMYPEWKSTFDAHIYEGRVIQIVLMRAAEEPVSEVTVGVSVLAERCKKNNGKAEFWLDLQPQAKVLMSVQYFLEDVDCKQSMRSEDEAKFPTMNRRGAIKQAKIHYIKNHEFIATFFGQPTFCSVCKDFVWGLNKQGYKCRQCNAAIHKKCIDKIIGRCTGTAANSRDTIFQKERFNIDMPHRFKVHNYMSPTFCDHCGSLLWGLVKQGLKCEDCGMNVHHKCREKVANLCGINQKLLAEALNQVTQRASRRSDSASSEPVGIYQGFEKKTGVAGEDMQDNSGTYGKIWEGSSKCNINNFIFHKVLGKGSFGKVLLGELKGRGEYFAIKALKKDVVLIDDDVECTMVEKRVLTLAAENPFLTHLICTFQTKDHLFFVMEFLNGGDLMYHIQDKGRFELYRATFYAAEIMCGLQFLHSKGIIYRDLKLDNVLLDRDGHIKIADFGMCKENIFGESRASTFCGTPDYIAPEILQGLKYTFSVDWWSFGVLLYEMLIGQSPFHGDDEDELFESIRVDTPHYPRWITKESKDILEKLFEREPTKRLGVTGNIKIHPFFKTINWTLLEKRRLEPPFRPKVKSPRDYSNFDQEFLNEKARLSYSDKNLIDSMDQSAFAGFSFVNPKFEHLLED
compound,measurement,value
CC(=O)c1c(O)c(C)c(O)c(Cc2c(O)c3c(c(C(=O)/C=C/c4ccccc4)c2O)OC(C)(C)C=C3)c1O [rottlerin],IC50,200 nM
